Experimental data as given in patent publication US20260324636A1, “COMPOSITION FOR PROVIDING PLANT WITH STRESS RESISTANCE” (KIRIN HOLDINGS KABUSHIKI KAISHA, priority 2022, published 2026).

Key:
[1] = system: OsHSFA2E; experiment: OsHSFA2E gene expression by real-time PCR, Example 6; type: in vivo, rice; details: Oryza sativa; 0.5 mM in medium, 30° C. for 2 hours, aboveground part; read-out: OsHSFA2E expression level, increase vs control
Source text: In order to design primers for the target genes necessary for gene expression analysis by real-time PCR, homologs of Arabidopsis thaliana high-temperature-responsive genes in rice were searched for. The amino acid sequence of Arabidopsis thaliana HSFA2 (AGI code: AT2G26150) was obtained from TAIR (https://www.arabidopsis.org/), and the nucleotide sequence of the homolog was obtained using RAP-DB (https://rapdb.dna.affrc.go.jp/). As a reference gene, the nucleotide sequence of the homolog of Arabidopsis thaliana ACTIN2 (AGI code: AT3G18780) was also obtained. Homolog genes in rice were designated as OsHSFA2E and OsACT1, respectively.
The materials as used in Example 3 were used.
The method as employed in Example 3 was employed.
The rice samples subjected to germination for 3 days were inoculated into a liquid medium consisting of a ½ Murashige and Skoog Plant Salt Mixture. Specifically, a liquid medium was dispensed at 3 ml/well to a 12-well microplate (IWAKI), and 3 samples were transferred to each well. N-acetylglutamic acid was applied to each well to the final concentration of 0.5 mM in the medium, incubation was performed at 30° C. for 2 hours, and RNA was extracted from the aboveground part using the RNeasy Plant Mini Kit. […]
Thereafter, the relative expression level of the target gene upon N-acetylglutamic acid treatment was calculated by the ΔΔCt method.

[2] = system: ZAT12; experiment: Histone H4 acetylation level of ZAT12 by chromatin immunoprecipitation and quantitative PCR, Example 14; type: in vivo, Arabidopsis thaliana (Col-0); details: Arabidopsis thaliana; 0.4 mM in medium, 2 hours after application; read-out: histone H4 acetylation level of ZAT12, increase vs group not subjected to the treatment
Experimental: A wild-type Arabidopsis thaliana strain (accession: Col-0) was used as an experimental material. Seeds were purchased from Inplanta Innovations Inc.
A liquid medium containing a ½ Murashige and Skoog Plant Salt Mixture (Nacalai) and 1 (w/v) % sucrose (FUJIFILM Wako) was used as a growth medium.
Arabidopsis thaliana seeds were sterilized with the use of a Kitchen Haiter® liquid (Kao Corporation) diluted to one-half concentration with distilled water for 3 minutes, washed 3 times with sterile distilled water, and then incubated at 4° C. overnight. The growth medium (100 ml) was prepared in a 300-ml flask, the incubated seeds were seeded therein, the flask was transferred to an incubator (TOMY), and shake culture was then initiated. The incubator was maintained at a temperature of 22° C. for a daily cycle of 16 hours light and 8 hours darkness, and the rotation speed of the shaker was set at 180 rpm.
A stock solution of N-acetylglutamic acid (Tokyo Chemical Industry Co., Ltd.) was added to Arabidopsis thaliana 7 days after seeding to the final concentration of 0 mM and 0.4 mM in the media, followed by incubation for 2 hours. Sample fixation following incubation was performed in accordance with Yamaguchi et al (Arabidopsis Book, Feb. 17, 2014; 12: e0170). […]

SMILES: CC(=O)N[C@@H](CCC(=O)O)C(=O)O [N-acetylglutamic acid]
- fold induction at 500 µM [1]: 1.4
- fold induction at 400 µM [2]: 2.3
